“And” between values parts separate entries of the source, which are not always exact repeats. Equal values may be shown once. Records with an inconclusive call do not appear.
Tested on: MX-1 breast xenograft, nude mice, tumor weight T/C
Test: NCI In Vivo Anticancer Drug Screen. Data for tumor model Human Mammary Carcinoma MX-1 Xenograft (intrarenal inoculation) in NU/NU Swiss (nude) mice
Conditions: endpoint: mean tumor weight change, higher = larger tumour
Procedure, shortened: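 Read-out: treated (T) over vehicle control (C) ratio of survival or tumor size. Dosing in animals carrying the transplanted tumor.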

[1] = dose: 50.0 mg/kg/injection, schedule: Q01DX010 (sc), vehicle: Klucel (hydroxypropylcellulose) (HPC)
[2] = dose: 300.0 mg/kg/injection, schedule: Q04DX003 (sc), vehicle: saline
[3] = dose: 100.0 mg/kg/injection, schedule: Q01DX010 (sc), vehicle: saline
[4] = dose: 75.0 mg/kg/injection, schedule: Q04DX003 (sc), vehicle: saline
[5] = dose: 150.0 mg/kg/injection, schedule: Q04DX003 (sc), vehicle: saline
[6] = dose: 150.0 mg/kg/injection, schedule: Q04DX003 (sc), vehicle: saline with Tween-80
[7] = dose: 300.0 mg/kg/injection, schedule: Q04DX003 (sc), vehicle: saline with Tween-80
[8] = dose: 600.0 mg/kg/injection, schedule: Q04DX003 (sc), vehicle: saline with Tween-80
[9] = dose: 1200.0 mg/kg/injection, schedule: Q04DX003 (sc), vehicle: saline with Tween-80

`CN(Cc1cnc2nc(N)nc(N)c2n1)c1c(Cl)cc(C(=O)NC(CCC(=O)O)C(=O)O)cc1Cl` (configuration not stated) was tested, and the T/C (dose: 12.5 mg/kg/injection, schedule: Q01DX010 (sc), vehicle: Klucel (hydroxypropylcellulose) (HPC)) was 86 % of control, the T/C (dose: 25.0 mg/kg/injection, schedule: Q01DX010 (sc), vehicle: Klucel (hydroxypropylcellulose) (HPC)) was 44 % of control and the T/C [1] was -25 % of control.

In the case of `CCC(CC)COC(=O)c1ccccc1C(=O)OCC(CC)CC`, the T/C [2] is reported as 112 % of control, the T/C (dose: 600.0 mg/kg/injection, schedule: Q04DX003 (sc), vehicle: saline) is reported as 82 % of control and the T/C (dose: 1200.0 mg/kg/injection, schedule: Q04DX003 (sc), vehicle: saline) is reported as 110 % of control. For the same compound, the T/C (dose: 2400.0 mg/kg/injection, schedule: Q04DX003 (sc), vehicle: saline) was 88 % of control.

For `C[n+]1c(-c2cccc(OCCOCCOc3cccc(-c4c5cc(N)ccc5c5ccc(N)cc5[n+]4C)c3)c2)c2cc(N)ccc2c2ccc(N)cc21`, the T/C (dose: 4.0 mg/kg/injection, schedule: Q04DX003 (sc), vehicle: water) was 92 % of control and the T/C (dose: 64.0 mg/kg/injection, schedule: Q04DX003 (sc), vehicle: water) was 73 % of control.

With `NCCc1ccc(O)c(O)c1` the T/C [3] was 77 % of control, the T/C (dose: 200.0 mg/kg/injection, schedule: Q01DX010 (sc), vehicle: saline) was 62 % of control and the T/C (dose: 400.0 mg/kg/injection, schedule: Q01DX010 (sc), vehicle: saline) was 80 % of control. The T/C (dose: 800.0 mg/kg/injection, schedule: Q01DX010 (sc), vehicle: saline) was 61 % of control.

`CCC(C(=O)O)C(=O)O.[NH2-].[NH2-].[Pt+2]` was tested, and the T/C [4] was -95 % of control, the T/C [5] was -82 % of control and the T/C [2] was -99 % of control.

`OCCN1CCN(CC/C=C2/c3ccccc3Sc3ccc(C(F)(F)F)cc32)CC1` was tested, and the T/C (dose: 30.0 mg/kg/injection, schedule: Q04DX003 (sc), vehicle: saline) was 65 % of control, the T/C (dose: 60.0 mg/kg/injection, schedule: Q04DX003 (sc), vehicle: saline) was 43 % of control and the T/C (dose: 120.0 mg/kg/injection, schedule: Q04DX003 (sc), vehicle: saline) was 29 % of control and 43 % of control. The T/C (dose: 240.0 mg/kg/injection, schedule: Q04DX003 (sc), vehicle: saline) was 17 % of control and 21 % of control.

For `CC(=O)[C@]1(O)Cc2c(O)c3c(c(O)c2[C@@H](OC2CC(N)C(O)C(C)O2)C1)C(=O)c1c(O)cccc1C3=O` (some centres not stated), the T/C (dose: 0.25 mg/kg/injection, schedule: Q01DX010 (sc), vehicle: saline) was 167 % of control and the T/C (dose: 0.5 mg/kg/injection, schedule: Q01DX010 (sc), vehicle: saline) was 68 % of control.

In the case of `O=C(O)CC(NC(=O)CP(=O)(O)O)C(=O)O` (configuration not stated), the T/C (dose: 50.0 mg/kg/injection, schedule: Q01DX010 (sc), vehicle: saline) is reported as 117 % of control and the T/C [3] is reported as 25 % of control and 34 % of control.

In the case of `CC[C@@]1(O)C(=O)OCc2c1cc1n(c2=O)Cc2cc3cc(O)ccc3nc2-1`, the T/C (dose: 8.0 mg/kg/injection, schedule: Q04DX003 (sc), vehicle: saline) is reported as -98 % of control, the T/C (dose: 16.0 mg/kg/injection, schedule: Q04DX003 (sc), vehicle: saline) is reported as -100 % of control and the T/C (dose: 32.0 mg/kg/injection, schedule: Q04DX003 (sc), vehicle: saline) is reported as -100 % of control. For the same compound, the T/C (dose: 32.0 mg/kg/injection, schedule: Q04DX003 (sc), vehicle: suspension in saline) was -100 % of control, the T/C (dose: 64.0 mg/kg/injection, schedule: Q04DX003 (sc), vehicle: saline) was -100 % of control and the T/C (dose: 64.0 mg/kg/injection, schedule: Q04DX003 (sc), vehicle: suspension in saline) was -100 % of control. For the same compound, the T/C (dose: 128.0 mg/kg/injection, schedule: Q04DX003 (sc), vehicle: suspension in saline) was -100 % of control.

In the case of `COc1cc2c(c(OC)c1OC)-c1c(cc3c(c1OC)OCO3)CC(C)C(C)(O)C2OC(=O)c1ccccc1` (configuration not stated), the T/C (dose: 300.0 mg/kg/injection, schedule: Q04DX003 (sc), vehicle: saline + alcohol) is reported as 68 % of control, the T/C (dose: 600.0 mg/kg/injection, schedule: Q04DX003 (sc), vehicle: saline + alcohol) is reported as 82 % of control and the T/C (dose: 1200.0 mg/kg/injection, schedule: Q04DX003 (sc), vehicle: saline + alcohol) is reported as 79 % of control. The T/C (dose: 2400.0 mg/kg/injection, schedule: Q04DX003 (sc), vehicle: saline + alcohol) was 88 % of control.

`CCCCCn1c(C)cc(/C=C\c2ccc3cc(C)ccc3[n+]2C)c1C` was tested, and the T/C (dose: 0.38 mg/kg/injection, schedule: Q04DX003 (sc), vehicle: Klucel (hydroxypropylcellulose) (HPC)) was 174 % of control, the T/C (dose: 0.75 mg/kg/injection, schedule: Q04DX003 (sc), vehicle: Klucel (hydroxypropylcellulose) (HPC)) was 62 % of control and the T/C (dose: 1.5 mg/kg/injection, schedule: Q04DX003 (sc), vehicle: Klucel (hydroxypropylcellulose) (HPC)) was 109 % of control. The T/C (dose: 3.0 mg/kg/injection, schedule: Q04DX003 (sc), vehicle: Klucel (hydroxypropylcellulose) (HPC)) was 74 % of control.

In the case of `Clc1cc(Cl)c(C[N+]23CN4CN(CN(C4)C2)C3)cc1Cl`, the T/C (dose: 37.5 mg/kg/injection, schedule: Q04DX003 (sc), vehicle: saline with Tween-80) is reported as 106 % of control, the T/C (dose: 75.0 mg/kg/injection, schedule: Q04DX003 (sc), vehicle: saline with Tween-80) is reported as 120 % of control and the T/C [6] is reported as 110 % of control. The T/C [7] was 169 % of control.

For `OCCO`, the T/C (dose: 8.0 % in 0.5 ml injection vol, schedule: Q04DX003 (sc), vehicle: water) was 69 % of control and the T/C (dose: 16.0 % in 0.5 ml injection vol, schedule: Q04DX003 (sc), vehicle: water) was 87 % of control.

In the case of `CC(=O)OCc1cc(=O)n(C)c2c3c4c(cc12)c(C)cc(=O)n4CO3`, the T/C [1] is reported as 120 % of control and the T/C (dose: 100.0 mg/kg/injection, schedule: Q01DX010 (sc), vehicle: Klucel (hydroxypropylcellulose) (HPC)) is reported as 92 % of control.

With `O=C(CC(=O)C(F)(F)F)c1csc2ccccc12` the T/C (dose: 300.0 mg/kg/injection, schedule: Q04DX003 (sc), vehicle: Klucel (hydroxypropylcellulose) (HPC)) was 87 % of control, the T/C (dose: 600.0 mg/kg/injection, schedule: Q04DX003 (sc), vehicle: Klucel (hydroxypropylcellulose) (HPC)) was 91 % of control and the T/C (dose: 1200.0 mg/kg/injection, schedule: Q04DX003 (sc), vehicle: Klucel (hydroxypropylcellulose) (HPC)) was 111 % of control. The T/C (dose: 2400.0 mg/kg/injection, schedule: Q04DX003 (sc), vehicle: Klucel (hydroxypropylcellulose) (HPC)) was 99 % of control.

For `CN(C(=S)S(=O)(=O)C12CC3CC(CC(C3)C1)C2)c1ccccc1`, the T/C (dose: 800.0 mg/kg/injection, schedule: Q04DX003 (sc), vehicle: Klucel (hydroxypropylcellulose) (HPC)) was 204 % of control.

In the case of `[Cl][Mn][Cl]`, the T/C (dose: 37.5 mg/kg/injection, schedule: Q04DX003 (sc), vehicle: saline) is reported as 115 % of control, the T/C [4] is reported as 109 % of control and the T/C [5] is reported as 104 % of control.

`CO[C@@H]1[C@H](O)CC[C@]2(CO2)[C@H]1[C@@]1(C)O[C@@H]1CC=C(C)C` was tested, and the T/C [6] was 150 % of control, the T/C [7] was 79 % of control and the T/C [8] was 99 % of control. The T/C [9] was 96 % of control.

With `Cc1nc(N)nc(N)c1-c1ccc(Cl)c(Cl)c1` the T/C (dose: 0.47 mg/kg/injection, schedule: Q04DX003 (sc), vehicle: saline) was 100 % of control, the T/C (dose: 0.94 mg/kg/injection, schedule: Q04DX003 (sc), vehicle: saline) was 80 % of control and the T/C (dose: 3.0 mg/kg/injection, schedule: Q04DX003 (sc), vehicle: saline) was 84 % of control. For the same compound, the T/C (dose: 3.75 mg/kg/injection, schedule: Q04DX003 (sc), vehicle: saline) was 102 % of control, the T/C (dose: 6.0 mg/kg/injection, schedule: Q04DX003 (sc), vehicle: saline) was 107 % of control and the T/C (dose: 12.0 mg/kg/injection, schedule: Q04DX003 (sc), vehicle: saline) was 87 % of control.

With `Cc1cc2nc3c(=O)[nH]c(=O)nc-3n(CC(O)C(O)C(O)C(O)CO)c2cc1C` (configuration not stated) the T/C [7] was 93 % of control, the T/C [8] was 89 % of control and the T/C [9] was 89 % of control. For the same compound, the T/C (dose: 2400.0 mg/kg/injection, schedule: Q04DX003 (sc), vehicle: saline with Tween-80) was 91 % of control.

For `CC(C)CCCCCCCCCCCCC(=O)NCC(=O)NC1C(O)C(O)C(Nc2ncnc3nc[nH]c23)OC1C(O)CO` (configuration not stated), the T/C (dose: 0.31 mg/kg/injection, schedule: Q01DX010 (sc), vehicle: saline) was 158 % of control, the T/C (dose: 0.4 mg/kg/injection, schedule: Q01DX010 (sc), vehicle: saline) was 194 % of control and the T/C (dose: 0.63 mg/kg/injection, schedule: Q01DX010 (sc), vehicle: saline) was 105 % of control. The T/C (dose: 0.8 mg/kg/injection, schedule: Q01DX010 (sc), vehicle: saline) was 93 % of control, the T/C (dose: 1.25 mg/kg/injection, schedule: Q01DX010 (sc), vehicle: saline) was 80 % of control and the T/C (dose: 1.6 mg/kg/injection, schedule: Q01DX010 (sc), vehicle: saline) was 40 % of control.

For `CCCCCNc1ncnc2c(C)[nH]nc12`, the T/C (dose: 75.0 mg/kg/injection, schedule: Q04DX003 (ip), vehicle: Klucel (hydroxypropylcellulose) (HPC)) was 80 % of control and the T/C (dose: 150.0 mg/kg/injection, schedule: Q04DX003 (ip), vehicle: Klucel (hydroxypropylcellulose) (HPC)) was 112 % of control.
